According to ChEMBL document CHEMBL4507291 (2021):

Key:
[1] = target: Cyclin-dependent kinase 15 (Homo sapiens) (UniProt Q96Q40)
[2] = target: Insulin receptor (Homo sapiens) (UniProt P06213)
[3] = target: Phosphatidylinositol 4-phosphate 5-kinase type-1 alpha (Homo sapiens) (UniProt Q99755)
[4] = target: G protein-coupled receptor kinase 4 (Homo sapiens) (UniProt P32298)
[5] = test system: Tyrosine-protein kinase ABL1 (Homo sapiens), P00519 [Q252H]
[6] = target: Serine/threonine-protein kinase WNK3 (Homo sapiens) (UniProt Q9BYP7)
[7] = target: Histamine H1 receptor (Homo sapiens) (UniProt P35367); details: Compound concentration 10.0 uM
[8] = target: Uncharacterized serine/threonine-protein kinase SBK3 (Homo sapiens) (UniProt P0C264)
Chain of Uncharacterized serine/threonine-protein kinase SBK3 (Homo sapiens) (P0C264 whole entry): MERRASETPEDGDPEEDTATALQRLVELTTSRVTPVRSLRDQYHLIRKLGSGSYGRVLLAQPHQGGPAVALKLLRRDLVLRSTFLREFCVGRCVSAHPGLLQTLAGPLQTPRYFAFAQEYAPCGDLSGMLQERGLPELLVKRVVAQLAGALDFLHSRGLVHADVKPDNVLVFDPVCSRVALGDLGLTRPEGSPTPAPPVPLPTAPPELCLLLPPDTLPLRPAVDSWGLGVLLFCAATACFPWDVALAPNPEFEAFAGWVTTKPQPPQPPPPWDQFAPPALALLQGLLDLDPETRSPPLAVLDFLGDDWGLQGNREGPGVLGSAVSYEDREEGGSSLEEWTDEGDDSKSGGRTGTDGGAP

[9] = test system: Epidermal growth factor receptor (Homo sapiens), P00533 [UNDEFINED MUTATION]
[10] = test system: Phosphatidylinositol 4,5-bisphosphate 3-kinase catalytic subunit alpha isoform (Homo sapiens), P42336 [H1047L]
[11] = target: Ribosomal protein S6 kinase alpha-5 (Homo sapiens) (UniProt O75582)
Chain of Ribosomal protein S6 kinase alpha-5 (Homo sapiens) (O75582 whole entry, looked up): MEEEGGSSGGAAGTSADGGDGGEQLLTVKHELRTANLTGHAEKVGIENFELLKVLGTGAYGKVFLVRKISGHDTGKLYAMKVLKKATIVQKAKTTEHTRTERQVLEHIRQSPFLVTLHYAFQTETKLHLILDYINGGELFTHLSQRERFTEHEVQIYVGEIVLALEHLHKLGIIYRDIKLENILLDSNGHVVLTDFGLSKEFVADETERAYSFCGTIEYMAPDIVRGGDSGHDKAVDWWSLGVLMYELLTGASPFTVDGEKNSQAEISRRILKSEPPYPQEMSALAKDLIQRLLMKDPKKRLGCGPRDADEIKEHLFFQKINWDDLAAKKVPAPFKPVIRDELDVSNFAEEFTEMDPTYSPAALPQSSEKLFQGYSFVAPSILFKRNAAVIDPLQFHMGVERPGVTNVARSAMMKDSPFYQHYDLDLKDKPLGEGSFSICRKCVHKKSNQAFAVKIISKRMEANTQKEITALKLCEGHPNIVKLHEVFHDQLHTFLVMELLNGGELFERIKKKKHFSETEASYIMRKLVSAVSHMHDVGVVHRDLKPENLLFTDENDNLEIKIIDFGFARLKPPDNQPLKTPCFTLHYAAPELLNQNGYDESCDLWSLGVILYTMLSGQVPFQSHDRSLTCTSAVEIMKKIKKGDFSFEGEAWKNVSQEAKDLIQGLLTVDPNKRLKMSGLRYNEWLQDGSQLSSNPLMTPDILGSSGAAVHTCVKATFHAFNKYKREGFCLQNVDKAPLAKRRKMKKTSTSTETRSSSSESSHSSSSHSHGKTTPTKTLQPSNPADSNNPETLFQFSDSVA

[12] = target: T1, Ephrin type-A receptor 1 (Homo sapiens) (UniProt P21709)
T1 sequence (whole entry): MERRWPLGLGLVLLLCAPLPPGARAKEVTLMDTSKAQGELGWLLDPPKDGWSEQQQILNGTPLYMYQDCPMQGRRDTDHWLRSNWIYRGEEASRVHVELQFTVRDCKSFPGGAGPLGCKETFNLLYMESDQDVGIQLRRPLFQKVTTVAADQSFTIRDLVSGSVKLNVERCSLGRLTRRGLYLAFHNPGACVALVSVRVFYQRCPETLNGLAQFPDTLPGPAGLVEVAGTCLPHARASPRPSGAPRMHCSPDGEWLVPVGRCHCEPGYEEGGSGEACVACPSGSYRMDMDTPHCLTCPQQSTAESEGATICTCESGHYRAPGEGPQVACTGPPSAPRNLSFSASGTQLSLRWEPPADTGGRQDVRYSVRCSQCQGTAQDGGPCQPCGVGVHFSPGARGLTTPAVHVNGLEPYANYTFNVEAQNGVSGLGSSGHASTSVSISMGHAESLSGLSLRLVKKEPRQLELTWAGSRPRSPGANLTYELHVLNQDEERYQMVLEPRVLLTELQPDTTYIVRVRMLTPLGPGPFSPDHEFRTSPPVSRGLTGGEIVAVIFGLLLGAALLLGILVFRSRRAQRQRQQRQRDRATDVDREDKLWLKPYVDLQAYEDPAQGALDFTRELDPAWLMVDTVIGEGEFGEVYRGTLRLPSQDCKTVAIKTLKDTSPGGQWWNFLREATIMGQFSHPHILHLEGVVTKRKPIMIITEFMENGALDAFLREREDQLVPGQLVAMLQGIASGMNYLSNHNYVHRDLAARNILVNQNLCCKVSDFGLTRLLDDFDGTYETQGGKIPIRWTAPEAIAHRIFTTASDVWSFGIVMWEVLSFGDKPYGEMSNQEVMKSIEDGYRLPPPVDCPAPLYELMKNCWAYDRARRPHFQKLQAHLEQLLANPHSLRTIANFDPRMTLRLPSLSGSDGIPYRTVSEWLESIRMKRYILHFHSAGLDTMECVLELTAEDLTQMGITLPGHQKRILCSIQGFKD

[13] = target: MAP kinase-activated protein kinase 2 (Homo sapiens) (UniProt P49137)
Chain of MAP kinase-activated protein kinase 2 (Homo sapiens) (P49137 whole entry, looked up): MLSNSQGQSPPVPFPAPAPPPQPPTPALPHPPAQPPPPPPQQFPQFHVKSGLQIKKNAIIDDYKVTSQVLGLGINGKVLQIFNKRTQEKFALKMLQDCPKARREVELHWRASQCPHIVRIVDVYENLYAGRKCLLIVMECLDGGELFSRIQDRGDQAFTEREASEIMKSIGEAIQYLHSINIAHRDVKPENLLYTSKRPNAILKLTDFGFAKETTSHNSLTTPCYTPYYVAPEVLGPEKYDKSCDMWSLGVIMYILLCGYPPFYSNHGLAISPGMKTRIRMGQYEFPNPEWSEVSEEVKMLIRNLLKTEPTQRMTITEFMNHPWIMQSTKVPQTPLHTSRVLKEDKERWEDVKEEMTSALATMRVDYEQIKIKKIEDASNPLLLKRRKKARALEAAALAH

[14] = target: Serine/threonine-protein kinase DCLK1 (Homo sapiens) (UniProt O15075)
[15] = target: Myosin light chain kinase 2, skeletal/cardiac muscle (Homo sapiens) (UniProt Q9H1R3)
[16] = target: T2, Alpha-1A adrenergic receptor (Homo sapiens) (UniProt P35348); details: Compound concentration 10.0 uM
T2 sequence (whole entry): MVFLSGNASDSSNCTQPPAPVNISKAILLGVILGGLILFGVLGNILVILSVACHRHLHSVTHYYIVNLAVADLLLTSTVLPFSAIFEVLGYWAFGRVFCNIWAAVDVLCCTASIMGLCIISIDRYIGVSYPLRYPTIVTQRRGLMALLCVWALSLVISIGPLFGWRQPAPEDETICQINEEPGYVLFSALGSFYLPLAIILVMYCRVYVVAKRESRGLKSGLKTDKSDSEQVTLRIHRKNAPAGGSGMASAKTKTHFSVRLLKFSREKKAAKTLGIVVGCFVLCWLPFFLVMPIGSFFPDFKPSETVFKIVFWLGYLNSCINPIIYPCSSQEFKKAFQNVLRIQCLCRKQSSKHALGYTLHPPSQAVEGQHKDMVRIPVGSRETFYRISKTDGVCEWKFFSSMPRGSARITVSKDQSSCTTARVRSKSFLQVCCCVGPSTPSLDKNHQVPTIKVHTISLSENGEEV

[17] = target: Cyclin-dependent kinase 8 (Homo sapiens) (UniProt P49336)
[18] = target: 5-hydroxytryptamine receptor 1E (Homo sapiens) (UniProt P28566); details: Compound concentration 10.0 uM
[19] = test system: Tyrosine-protein kinase ABL1 (Homo sapiens), P00519 [H396P]
[20] = target: Receptor-interacting serine/threonine-protein kinase 1 (Homo sapiens) (UniProt Q13546)
Chain of Receptor-interacting serine/threonine-protein kinase 1 (Homo sapiens) (Q13546 whole entry, canonical isoform): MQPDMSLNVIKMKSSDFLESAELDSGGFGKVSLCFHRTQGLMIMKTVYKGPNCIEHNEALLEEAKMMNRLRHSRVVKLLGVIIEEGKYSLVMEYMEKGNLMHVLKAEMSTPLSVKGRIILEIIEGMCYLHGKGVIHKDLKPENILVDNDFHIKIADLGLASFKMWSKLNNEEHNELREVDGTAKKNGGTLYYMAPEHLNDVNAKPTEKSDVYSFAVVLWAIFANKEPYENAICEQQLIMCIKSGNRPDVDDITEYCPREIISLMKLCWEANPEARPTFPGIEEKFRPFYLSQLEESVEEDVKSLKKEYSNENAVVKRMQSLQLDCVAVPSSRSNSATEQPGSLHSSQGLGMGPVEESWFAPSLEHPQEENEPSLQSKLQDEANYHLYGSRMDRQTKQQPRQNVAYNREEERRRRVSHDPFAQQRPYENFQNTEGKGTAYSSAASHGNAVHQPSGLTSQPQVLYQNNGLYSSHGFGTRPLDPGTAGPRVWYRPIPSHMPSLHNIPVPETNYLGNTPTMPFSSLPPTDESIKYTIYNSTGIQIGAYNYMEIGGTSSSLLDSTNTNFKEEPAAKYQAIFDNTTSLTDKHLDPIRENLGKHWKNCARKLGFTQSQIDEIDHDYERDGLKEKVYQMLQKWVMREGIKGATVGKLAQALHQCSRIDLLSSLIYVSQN

[21] = target: Phosphatidylinositol 4,5-bisphosphate 3-kinase catalytic subunit delta isoform (Homo sapiens) (UniProt O00329)
[22] = target: Cyclin-G-associated kinase (Homo sapiens) (UniProt O14976)
[23] = target: Protein kinase C delta type (Homo sapiens) (UniProt Q05655)
Chain of Protein kinase C delta type (Homo sapiens) (Q05655 whole entry, looked up): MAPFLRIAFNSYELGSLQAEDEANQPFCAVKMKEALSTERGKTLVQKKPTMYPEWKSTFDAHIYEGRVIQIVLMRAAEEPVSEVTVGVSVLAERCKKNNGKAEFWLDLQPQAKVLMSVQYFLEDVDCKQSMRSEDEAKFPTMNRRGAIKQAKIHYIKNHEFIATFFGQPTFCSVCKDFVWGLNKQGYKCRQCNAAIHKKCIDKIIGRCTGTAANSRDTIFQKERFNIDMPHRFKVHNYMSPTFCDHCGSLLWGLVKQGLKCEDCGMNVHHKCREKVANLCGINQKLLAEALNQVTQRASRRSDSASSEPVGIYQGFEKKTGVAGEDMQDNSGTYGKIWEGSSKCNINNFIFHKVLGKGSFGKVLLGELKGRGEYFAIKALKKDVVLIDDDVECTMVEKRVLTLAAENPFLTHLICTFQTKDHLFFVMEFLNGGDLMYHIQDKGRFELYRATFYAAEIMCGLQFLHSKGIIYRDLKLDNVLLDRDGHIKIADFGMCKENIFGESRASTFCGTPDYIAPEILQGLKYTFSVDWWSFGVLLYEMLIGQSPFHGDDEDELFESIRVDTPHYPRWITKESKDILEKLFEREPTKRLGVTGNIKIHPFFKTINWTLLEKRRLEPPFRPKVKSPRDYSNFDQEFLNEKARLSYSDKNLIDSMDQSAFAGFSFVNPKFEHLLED

[24] = target: Phosphatidylinositol 4-kinase beta (Homo sapiens) (UniProt Q9UBF8)
[25] = target: Serine/threonine-protein kinase ULK1 (Homo sapiens) (UniProt O75385)
Chain of Serine/threonine-protein kinase ULK1 (Homo sapiens) (O75385 whole entry): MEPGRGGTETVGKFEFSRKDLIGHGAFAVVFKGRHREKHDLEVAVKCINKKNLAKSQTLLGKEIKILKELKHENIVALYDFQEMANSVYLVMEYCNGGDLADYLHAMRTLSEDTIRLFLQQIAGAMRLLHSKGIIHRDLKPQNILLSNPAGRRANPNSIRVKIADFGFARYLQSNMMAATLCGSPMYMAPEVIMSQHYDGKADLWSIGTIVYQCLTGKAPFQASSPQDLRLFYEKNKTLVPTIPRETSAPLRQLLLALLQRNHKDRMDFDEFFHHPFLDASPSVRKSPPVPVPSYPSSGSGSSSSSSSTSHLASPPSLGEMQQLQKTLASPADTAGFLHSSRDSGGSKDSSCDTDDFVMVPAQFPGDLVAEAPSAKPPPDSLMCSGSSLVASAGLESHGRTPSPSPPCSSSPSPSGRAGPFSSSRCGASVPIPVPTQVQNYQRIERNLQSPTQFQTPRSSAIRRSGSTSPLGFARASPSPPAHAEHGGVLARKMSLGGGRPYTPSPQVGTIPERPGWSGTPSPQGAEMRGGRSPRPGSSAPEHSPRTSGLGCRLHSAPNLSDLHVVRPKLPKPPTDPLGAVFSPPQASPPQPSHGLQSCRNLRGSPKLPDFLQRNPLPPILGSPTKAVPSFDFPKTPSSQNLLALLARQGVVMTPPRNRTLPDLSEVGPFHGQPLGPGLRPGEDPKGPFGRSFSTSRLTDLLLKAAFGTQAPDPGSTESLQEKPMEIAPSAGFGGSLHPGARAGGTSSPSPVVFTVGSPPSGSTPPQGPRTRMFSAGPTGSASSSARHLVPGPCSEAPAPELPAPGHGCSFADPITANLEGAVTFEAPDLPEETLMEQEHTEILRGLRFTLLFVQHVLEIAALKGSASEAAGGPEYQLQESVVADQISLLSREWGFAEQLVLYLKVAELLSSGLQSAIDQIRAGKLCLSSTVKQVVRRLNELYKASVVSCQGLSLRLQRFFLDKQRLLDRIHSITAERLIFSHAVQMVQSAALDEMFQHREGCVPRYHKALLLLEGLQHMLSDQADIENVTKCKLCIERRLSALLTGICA

[26] = Compound concentration 1000.0 nM
[27] = Compound concentration 100.0 nM

Chain of Cyclin-dependent kinase 15 (Homo sapiens) (Q96Q40 whole entry): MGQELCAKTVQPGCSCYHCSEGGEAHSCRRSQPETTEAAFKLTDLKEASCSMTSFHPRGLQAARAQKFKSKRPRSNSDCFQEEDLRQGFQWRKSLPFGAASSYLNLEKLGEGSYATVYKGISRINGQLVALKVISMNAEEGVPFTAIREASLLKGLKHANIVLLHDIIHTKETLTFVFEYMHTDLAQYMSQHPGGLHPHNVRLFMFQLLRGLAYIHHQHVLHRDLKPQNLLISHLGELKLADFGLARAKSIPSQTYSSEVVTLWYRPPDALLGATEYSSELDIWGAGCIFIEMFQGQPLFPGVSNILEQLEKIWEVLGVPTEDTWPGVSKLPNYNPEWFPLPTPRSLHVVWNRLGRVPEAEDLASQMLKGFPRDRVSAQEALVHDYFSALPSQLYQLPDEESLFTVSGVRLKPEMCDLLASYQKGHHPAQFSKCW
Chain of G protein-coupled receptor kinase 4 (Homo sapiens) (P32298 whole entry, looked up): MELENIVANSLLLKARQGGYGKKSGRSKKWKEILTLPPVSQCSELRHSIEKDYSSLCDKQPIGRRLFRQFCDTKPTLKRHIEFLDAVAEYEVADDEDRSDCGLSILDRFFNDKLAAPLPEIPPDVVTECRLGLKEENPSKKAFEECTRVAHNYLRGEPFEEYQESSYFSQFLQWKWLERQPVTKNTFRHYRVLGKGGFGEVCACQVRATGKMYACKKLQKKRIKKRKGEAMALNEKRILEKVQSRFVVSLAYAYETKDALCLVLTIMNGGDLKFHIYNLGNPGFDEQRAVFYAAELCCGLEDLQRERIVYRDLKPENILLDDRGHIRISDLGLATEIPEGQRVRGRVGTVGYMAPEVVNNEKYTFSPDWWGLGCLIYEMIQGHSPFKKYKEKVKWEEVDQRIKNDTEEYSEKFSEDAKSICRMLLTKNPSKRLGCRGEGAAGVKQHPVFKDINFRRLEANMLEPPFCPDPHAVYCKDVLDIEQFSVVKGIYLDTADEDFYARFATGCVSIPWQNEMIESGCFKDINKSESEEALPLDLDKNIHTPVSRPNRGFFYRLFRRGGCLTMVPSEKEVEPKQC

C[C@@H]1CN(c2cc(-c3nn(C)c4ccc(OC5(C)CC5)cc34)ncn2)C[C@H](C)O1 [MLi-2-NC]
inactive: residual activity [1, 26] 84% | residual activity [2, 26] 100% | residual activity [3, 26] 100% | residual activity [4, 26] 96% | residual activity [5, 26] 93% | residual activity [6, 26] 91% | inhibition [7] 11.9% | residual activity [8, 26] 100% | residual activity [9, 26] 67% | residual activity [10, 26] 83% | residual activity [11, 26] 79% | residual activity [12, 26] 100% | residual activity [13, 26] 93% | residual activity [14, 26] 64% | residual activity [15, 26] 87% | inhibition [16] -3.6% | residual activity [17, 26] 100% | inhibition [18] -0.18% | residual activity [19, 26] 75% | residual activity [20, 26] 98% | residual activity [21, 26] 97% | residual activity [22, 26] 86% | residual activity [23, 26] 100% | residual activity [24, 26] 89% | residual activity [25, 26] 76%

C[C@@H]1CN(c2cc(-c3n[nH]c4ccc(OC5(C)CC5)cc34)ncn2)C[C@H](C)O1 [MLi-2]
inactive: residual activity [1, 27] 100% | residual activity [2, 27] 100% | residual activity [3, 27] 100% | residual activity [4, 27] 100% | residual activity [5, 27] 100% | residual activity [6, 27] 73% | inhibition [7] -6.46% | residual activity [8, 27] 100% | residual activity [9, 27] 53% | residual activity [10, 27] 87% | residual activity [11, 27] 89% | residual activity [12, 27] 76% | residual activity [13, 27] 96% | residual activity [14, 27] 81% | residual activity [15, 27] 91% | inhibition [16] 3.49% | residual activity [17, 27] 63% | inhibition [18] -7.52% | residual activity [19, 27] 96% | residual activity [20, 27] 100% | residual activity [21, 27] 68% | residual activity [22, 27] 86% | residual activity [23, 27] 100% | residual activity [24, 27] 100% | residual activity [25, 27] 80%
